Data: the supplement of paper PMC13380429

How the values were obtained:
Settings in all cases: 72 h
HepG2 [1] = assay: drug sensitivity score (DSS) for viability; higher = more toxic; extreme values may be limits of the assay
Calu-3 [2] = assay: as above
U2OS [3] = assay: as above
Caco-2 [4] = assay: as above
Vero E6 [5] = assay: as above
HepG2 [6] = assay: cell viability relative to DMSO; higher = less toxic
Calu-3 [7] = assay: as above
U2OS [8] = assay: as above
Caco-2 [9] = assay: as above
Vero E6 [10] = assay: as above
HepG2 [11] = assay: relative viability EC50 (midpoint between 100% and the lowest measured viability); higher = less toxic
Calu-3 [12] = assay: as above
U2OS [13] = assay: as above
Caco-2 [14] = assay: as above
Vero E6 [15] = assay: as above

Compound	drug sensitivity score (HepG2 [1])	drug sensitivity score (Calu-3 [2])	drug sensitivity score (U2OS [3])	drug sensitivity score (Caco-2 [4])	drug sensitivity score (Vero E6 [5])	cell viability (HepG2 [6]; 1 nM)	cell viability (HepG2 [6]; 10 nM)	cell viability (HepG2 [6]; 100 nM)	cell viability (HepG2 [6]; 1000 nM)	cell viability (HepG2 [6]; 10000 nM)	cell viability (Calu-3 [7]; 1 nM)	cell viability (Calu-3 [7]; 10 nM)	cell viability (Calu-3 [7]; 100 nM)	cell viability (Calu-3 [7]; 1000 nM)	cell viability (Calu-3 [7]; 10000 nM)	cell viability (U2OS [8]; 1 nM)	cell viability (U2OS [8]; 10 nM)	cell viability (U2OS [8]; 100 nM)	cell viability (U2OS [8]; 1000 nM)	cell viability (U2OS [8]; 10000 nM)	cell viability (Caco-2 [9]; 1 nM)	cell viability (Caco-2 [9]; 10 nM)	cell viability (Caco-2 [9]; 100 nM)	cell viability (Caco-2 [9]; 1000 nM)	cell viability (Caco-2 [9]; 10000 nM)	cell viability (Vero E6 [10]; 1 nM)	cell viability (Vero E6 [10]; 10 nM)	cell viability (Vero E6 [10]; 100 nM)	cell viability (Vero E6 [10]; 1000 nM)	cell viability (Vero E6 [10]; 10000 nM)	relative viability EC50 (HepG2 [11])	relative viability EC50 (Calu-3 [12])	relative viability EC50 (U2OS [13])	relative viability EC50 (Caco-2 [14])	relative viability EC50 (Vero E6 [15])
CN(C)CCC=C1c2ccccc2CCc2ccccc21 [amitriptyline]	0.8	0	0	0	0	107%	102%	99.1%	93%	83.5%	99.6%	109%	110%	104%	90.3%	102%	98.5%	100%	101%	92.3%	110%	77.9%	104%	96.5%	90.8%	102%	94%	86.5%	113%	86.3%	> 10 µM	> 10 µM	> 10 µM	> 10 µM	> 10 µM
CC1(C)S[C@@H]2[C@H](NC(=O)[C@H](N)c3ccc(O)cc3)C(=O)N2[C@H]1C(=O)O [amoxicillin]	0	0	0	0	0	99.3%	106%	97.3%	98.2%	96.4%	109%	110%	110%	106%	96.5%	102%	103%	96.2%	102%	106%	85%	78.5%	85.4%	97%	97.7%	101%	97.8%	98.2%	88.2%	102%	> 10 µM	> 10 µM	> 10 µM	> 10 µM	> 10 µM
CCOC(=O)c1c(CSc2ccccc2)n(C)c2cc(Br)c(O)c(CN(C)C)c12 [arbidol]	0	0.9	0	0	0	96%	104%	108%	104%	97.2%	94.5%	96.7%	96%	96.8%	81.6%	98.3%	92.8%	96.8%	92.4%	93.8%	94.9%	88.1%	94.4%	96.7%	88.2%	92.9%	96.6%	92%	104%	101%	> 10 µM	> 10 µM	> 10 µM	> 10 µM	> 10 µM
C[C@@H]1CC[C@H]2[C@@H](C)C(=O)O[C@@H]3O[C@@]4(C)CC[C@@H]1[C@]32OO4 [artemisinin]	2.5	0	1.1	1.3	0	97.3%	93.1%	88.7%	86.1%	77.1%	101%	102%	99.5%	95.4%	97.5%	96.9%	99.8%	94.6%	91.1%	78.6%	95.6%	104%	102%	91.4%	81.6%	97.5%	95.4%	98%	96.9%	100%	> 10 µM	> 10 µM	> 10 µM	> 10 µM	> 10 µM
C=C[C@@H]1C[C@]1(NC(=O)[C@@H]1C[C@@H](Oc2ncc(OC)c3ccc(Cl)cc23)CN1C(=O)[C@@H](NC(=O)OC(C)(C)C)C(C)(C)C)C(=O)NS(=O)(=O)C1CC1 [asunaprevir]	0.6	0	0	0.1	0	104%	97.8%	98.8%	89.8%	86.1%	104%	101%	104%	101%	95.9%	98.4%	101%	96.7%	96.8%	97.8%	98.7%	96.5%	90%	104%	85.8%	102%	98.4%	93.5%	101%	91%	> 10 µM	> 10 µM	> 10 µM	> 10 µM	> 10 µM
C=C[C@@](C)(/C=C/c1ccc(O)cc1)CCC=C(C)C [bakuchiol]	0.9	0	0	0	0	107%	115%	87.9%	93%	81.5%	94.8%	94.9%	95.7%	96.1%	98.2%	96.1%	101%	98%	92.8%	97.6%	105%	87.4%	109%	96.8%	97.6%	103%	110%	98.7%	97.6%	98.5%	> 10 µM	> 10 µM	> 10 µM	> 10 µM	> 10 µM
O=C(O)COc1nn(Cc2ccccc2)c2ccccc12 [bendazac]	0	0	0	0	0	91.7%	104%	97.3%	94.1%	98.7%	86.6%	83.3%	104%	103%	104%	91.7%	95.3%	98.9%	92.3%	96.1%	109%	96.3%	103%	97.6%	102%	101%	101%	99%	103%	98.8%	> 10 µM	> 10 µM	> 10 µM	> 10 µM	> 10 µM
CN(C)CCCOc1nn(Cc2ccccc2)c2ccccc12 [benzydamine]	0	0	0	0	0.5	97.7%	102%	95.1%	91.4%	89.8%	98.8%	91.7%	95.6%	101%	90.5%	101%	96.5%	100%	95.6%	91.2%	86.2%	94.3%	73.1%	80.3%	87.1%	98.7%	105%	98.3%	96.9%	85.5%	> 10 µM	> 10 µM	> 10 µM	> 10 µM	> 10 µM
COc1cc(OC)c(/C=C/S(=O)(=O)Cc2ccc(OC)c(OP(=O)(O)O)c2)c(OC)c1 [briciclib]	17	7.4	17.5	17.5	25.5	113%	108%	56.1%	36%	38.7%	101%	108%	94.9%	65.2%	41%	102%	104%	73.4%	23.7%	18.2%	106%	103%	45.1%	42%	42.9%	95.9%	92.2%	23.6%	21.2%	26.9%	0.0738 µM	0.75 µM	0.161 µM	0.0392 µM	0.0246 µM
CCCCN1CCCCC1C(=O)Nc1c(C)cccc1C (stereo not given) [bupivacaine]	0	0	0	0	0	100%	106%	92.7%	97.2%	103%	95.9%	101%	80.2%	99.1%	88.4%	95.7%	96.7%	94.6%	103%	95.7%	85.3%	88.2%	71.6%	96.7%	82.9%	103%	103%	104%	98.7%	99.6%	> 10 µM	> 10 µM	> 10 µM	> 10 µM	> 10 µM
CC(NC(C)(C)C)C(=O)c1cccc(Cl)c1 (stereo not given) [bupropion]	0	0	0	0	1.3	100%	103%	103%	105%	95%	104%	96.3%	101%	106%	101%	95.1%	96%	99%	94.4%	93.8%	90.3%	90.6%	86.4%	105%	91.6%	107%	105%	102%	92.1%	81.7%	> 10 µM	> 10 µM	> 10 µM	> 10 µM	> 10 µM
Cn1nc(C(C)(C)C)cc1C(=O)N[C@@H](Cc1cccc(Cl)c1)C(=O)NCC#N [cathepsin-inhibitor-1]	0	0	0	0	0	94%	103%	112%	90.8%	98.4%	103%	89.1%	105%	94.9%	91.8%	97.7%	99.1%	92.8%	94.2%	90.9%	99.8%	99.3%	86.7%	93.5%	92.3%	95%	99.3%	102%	96.2%	98.4%	> 10 µM	> 10 µM	> 10 µM	> 10 µM	> 10 µM
CCCCCCCCCCCCCCCC[n+]1ccccc1 [cetylpyridinium]	9.8	5.4	8	9.1	5.9	106%	95.4%	89.2%	58.2%	14.6%	104%	99.9%	105%	84.3%	44.1%	103%	102%	104%	80.9%	10.1%	103%	99%	101%	66.4%	16.5%	96.2%	97.5%	98.1%	91.6%	19.2%	0.929 µM	1.46 µM	1.68 µM	1.17 µM	2.3 µM
NS(=O)(=O)c1cc2c(cc1Cl)N=CNS2(=O)=O [chlorothiazide]	0	0	0	0.1	0	102%	102%	95.9%	97.8%	99%	85.8%	88.9%	103%	102%	96.6%	98.1%	102%	96.6%	106%	99%	92.4%	99.8%	95.3%	91%	86.6%	97.8%	103%	96.3%	96.8%	96.7%	> 10 µM	> 10 µM	> 10 µM	> 10 µM	> 10 µM
